Biological target: CD73 (Homo sapiens (Human), UniProt P21589)
Test: Biochemical CD73 Assay (Malachite Green free phosphate detection)
Conditions: recombinant human CD73 2 nM, AMP 40 μM, 45 min at 37° C.
Method: Activity of recombinant CD73 was measured by quantification of free phosphate using the Malachite Green detection system (R&D Systems #DY996). Test compounds were solubilized in DMSO and dispensed into 384-well polystyrene plates in a 8-point 3× titration in duplicates. Then, 10 μL of 4 nM human CD73 enzyme (Novoprotein #C446) in phosphate-free assay buffer (10 mM HEPES, pH 7.4, 125 mM NaCl, 1 mM KCl, 10 mM glucose, 2 mM MgCl2) was added to the plates. The compound and enzyme were incubated for 15 min at RT. Then, 10 μL of 80 μM AMP (Sigma Aldrich #A1752) in the assay buffer was added and the reaction mixture was incubated for 45 min at 37° C. The final concentrations of CD73 and AMP in the reaction were 2 nM and 40 μM, respectively. The reaction was stopped by adding 5 μL of Malachite Green reagent A and incubating for 10 min at RT, followed by addition of 5 μL of Malachite Green reagent B and incubation for 20 min at RT. Absorbance was then read at 620 nm with the Flexstation spectrophotometer (Molecular Devices). The IC50 values were determined using a four-parameter nonlinear regression curve fit.

Chain of CD73 (P21589 27-574): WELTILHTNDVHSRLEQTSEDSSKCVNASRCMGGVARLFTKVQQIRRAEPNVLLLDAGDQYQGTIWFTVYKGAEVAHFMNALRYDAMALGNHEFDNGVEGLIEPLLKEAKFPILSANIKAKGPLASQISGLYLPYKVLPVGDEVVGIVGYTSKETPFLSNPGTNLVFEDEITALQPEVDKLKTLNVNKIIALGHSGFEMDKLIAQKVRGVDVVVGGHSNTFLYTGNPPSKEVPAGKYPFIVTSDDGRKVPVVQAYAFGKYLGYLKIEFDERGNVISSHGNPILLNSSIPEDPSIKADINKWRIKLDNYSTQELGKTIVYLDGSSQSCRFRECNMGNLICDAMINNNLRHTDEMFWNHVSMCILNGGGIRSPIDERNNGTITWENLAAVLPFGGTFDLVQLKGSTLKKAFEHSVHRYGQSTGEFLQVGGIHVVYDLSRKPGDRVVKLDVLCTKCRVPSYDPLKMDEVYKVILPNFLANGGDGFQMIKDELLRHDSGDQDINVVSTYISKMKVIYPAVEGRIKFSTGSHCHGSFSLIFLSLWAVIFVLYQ

IC50 [nM] | Compound
19 | COC[C@](OC[C@H]1O[C@@H](n2ncc3c(NC4CCCC4)nc(Cl)nc32)[C@H](O)[C@@H]1O)(C(=O)N=[S@](C)(N)=O)P(=O)(O)O [Example 2, ((2R)-1-((Amino(methyl)(oxo)-λ^6-sulfaneylidene)amino)-2-(((2R,3S,4R,5R)-5-(6-chloro-4-(cyclopentylamino)-1H-pyrazolo[3,4-d]pyrimidin-1-yl)-3,4-dihydroxytetrahydrofuran-2-yl)methoxy)-3-methoxy-1-oxopropan-2-yl)phosphonic Acid]
1.7 | COC[C@@](OC[C@H]1O[C@@H](n2ncc3c(NC4CCCC4)nc(Cl)nc32)[C@H](O)[C@@H]1O)(C(=O)N=[S@@](C)(=O)NC(=O)OC)P(=O)(O)O [Example 7, ((S)-2-(((2R,3S,4R,5R)-5-(6-Chloro-4-(cyclopentylamino)-1H-pyrazolo[3,4-d]pyrimidin-1-yl)-3,4-dihydroxytetrahydrofuran-2-yl)methoxy)-3-methoxy-1-(((R)-((methoxycarbonyl)amino)(methyl)(oxo)-λ^6-sulfaneylidene)amino)-1-oxopropan-2-yl)phosphonic Acid]
0.5 | COC[C@@](OC[C@H]1O[C@@H](n2ncc3c(NC4CCCC4)cc(Cl)nc32)[C@H](O)[C@@H]1O)(C(=O)N=[S@@](C)(=O)NC(C)=O)P(=O)(O)O [Example 31, ((S)-1-(((R)-acetamido(methyl)(oxo)-λ^6-sulfaneylidene)amino)-2-(((2R,3S,4R,5R)-5-(6-chloro-4-(cyclopentylamino)-1H-pyrazolo[3,4-b]pyridin-1-yl)-3,4-dihydroxytetrahydrofuran-2-yl)methoxy)-3-methoxy-1-oxopropan-2-yl)phosphonic Acid]
2.3 | COC[C@@](OC[C@H]1O[C@@H](n2ncc3c(NC4CCCC4)nc(Cl)nc32)[C@H](O)[C@@H]1O)(C(=O)N=[S@](C)(=O)NC(=O)c1cnn(C)c1)P(=O)(O)O (single isomer, unassigned) [Example 24]
1.6 | COC[C@@](OC[C@H]1O[C@@H](n2ncc3c(NC4CCCC4)nc(Cl)nc32)[C@H](O)[C@@H]1O)(C(=O)N=[S@@](C)(=O)NC(C)=O)P(=O)(O)O [Example 5, ((S)-1-(((R)-Acetamido(methyl)(oxo)-λ^6-sulfaneylidene)amino)-2-(((2R,3S,4R,5R)-5-(6-chloro-4-(cyclopentylamino)-1H-pyrazolo[3,4-d]pyrimidin-1-yl)-3,4-dihydroxytetrahydrofuran-2-yl)methoxy)-3-methoxy-1-oxopropan-2-yl)phosphonic Acid]
2.36 | COC[C@@](OC[C@H]1O[C@@H](n2ncc3c(NC4CCCC4)nc(Cl)nc32)[C@H](O)[C@@H]1O)(C(=O)N=[S@](C)(=O)NC(=O)c1ccc(F)cc1)P(=O)(O)O (single isomer, unassigned) [Example 26]
0.21 | COC[C@@](OC[C@H]1O[C@@H](n2ncc3c(NC4CCCC4)nc(Cl)nc32)[C@H](O)[C@@H]1O)(C(=O)N=[S@](C)(=O)NC(=O)C1COC1)P(=O)(O)O [Example 22, ((2S)-2-(((2R,3S,4R,5R)-5-(6-chloro-4-(cyclopentylamino)-1H-pyrazolo[3,4-d]pyrimidin-1-yl)-3,4-dihydroxytetrahydrofuran-2-yl)methoxy)-3-methoxy-1-((methyl(oxetane-3-carboxamido)(oxo)-λ^6-sulfaneylidene)amino)-1-oxopropan-2-yl)phosphonic Acid]
1 | COC[C@@](OC[C@H]1O[C@@H](n2ncc3c(NC4CCCC4)cc(Cl)nc32)[C@H](O)[C@@H]1O)(C(=O)N=[S@](C)(=O)NC(=O)C1CC1)P(=O)(O)O [Example 28, ((S)-2-(((2R,3S,4R,5R)-5-(6-chloro-4-(cyclopentylamino)-1H-pyrazolo[3,4-b]pyridin-1-yl)-3,4-dihydroxytetrahydrofuran-2-yl)methoxy)-1-(((S)-cyclopropanecarboxamido(methyl)(oxo)-λ^6-sulfaneylidene)amino)-3-methoxy-1-oxopropan-2-yl)phosphonic Acid]
5.1 | COC[C@@](OC[C@H]1O[C@@H](n2ncc3c(NC4CCCC4)nc(Cl)nc32)[C@H](O)[C@@H]1O)(C(=O)N=S(C)(=O)NC(=O)C1COC1)P(=O)(O)O (single isomer, unassigned) [Example 21]
1 | COC[C@@](OC[C@H]1O[C@@H](n2ncc3c(NC4CCCC4)cc(Cl)nc32)[C@H](O)[C@@H]1O)(C(=O)N=[S@](C)(=O)NC(C)=O)P(=O)(O)O [Example 32, ((S)-1-(((S)-acetamido(methyl)(oxo)-λ^6-sulfaneylidene)amino)-2-(((2R,3S,4R,5R)-5-(6-chloro-4-(cyclopentylamino)-1H-pyrazolo[3,4-b]pyridin-1-yl)-3,4-dihydroxytetrahydrofuran-2-yl)methoxy)-3-methoxy-1-oxopropan-2-yl)phosphonic Acid]
220 | COC[C@](OC[C@H]1O[C@@H](n2ncc3c(NC4CCCC4)nc(Cl)nc32)[C@H](O)[C@@H]1O)(C(=O)N=[S@@](C)(=O)NC(C)=O)P(=O)(O)O [Example 6, ((R)-1-(((R)-Acetamido(methyl)(oxo)-λ^6-sulfaneylidene)amino)-2-(((2R,3S,4R,5R)-5-(6-chloro-4-(cyclopentylamino)-1H-pyrazolo[3,4-d]pyrimidin-1-yl)-3,4-dihydroxytetrahydrofuran-2-yl)methoxy)-3-methoxy-1-oxopropan-2-yl)phosphonic Acid]
7.8 | COC[C@@](OC[C@H]1O[C@@H](n2ncc3c(NC4CCCC4)nc(Cl)nc32)[C@H](O)[C@@H]1O)(C(=O)N=[S@@](C)(=O)NC(=O)c1cccnc1)P(=O)(O)O [Example 27, ((2S)-2-(((2R,3S,4R,5R)-5-(6-chloro-4-(cyclopentylamino)-1H-pyrazolo[3,4-d]pyrimidin-1-yl)-3,4-dihydroxytetrahydrofuran-2-yl)methoxy)-3-methoxy-1-((methyl(nicotinamido)(oxo)-λ^6-sulfaneylidene)amino)-1-oxopropan-2-yl)phosphonic Acid]
1.13 | COC[C@@](OC[C@H]1O[C@@H](n2ncc3c(NC4CCCC4)nc(Cl)nc32)[C@H](O)[C@@H]1O)(C(=O)N=[S@@](C)(=O)NC(=O)c1ccc(F)cc1)P(=O)(O)O (single isomer, unassigned) [Example 25]
275 | COC[C@](OC[C@H]1O[C@@H](n2ncc3c(NC4CCCC4)nc(Cl)nc32)[C@H](O)[C@@H]1O)(C(=O)N=[S@@](C)(N)=O)P(=O)(O)O [Example 4, ((2R)-1-((Amino(methyl)(oxo)-λ^6-sulfaneylidene)amino)-2-(((2R,3S,4R,5R)-5-(6-chloro-4-(cyclopentylamino)-1H-pyrazolo[3,4-d]pyrimidin-1-yl)-3,4-dihydroxytetrahydrofuran-2-yl)methoxy)-3-methoxy-1-oxopropan-2-yl)phosphonic Acid]
0.6 | CNC(=O)N[S@@](C)(=O)=NC(=O)[C@@](COC)(OC[C@H]1O[C@@H](n2ncc3c(NC4CCCC4)cc(Cl)nc32)[C@H](O)[C@@H]1O)P(=O)(O)O [Example 30, ((S)-2-(((2R,3S,4R,5R)-5-(6-chloro-4-(cyclopentylamino)-1H-pyrazolo[3,4-b]pyridin-1-yl)-3,4-dihydroxytetrahydrofuran-2-yl)methoxy)-3-methoxy-1-(((S)-methyl(3-methylureido)(oxo)-λ^6-sulfaneylidene)amino)-1-oxopropan-2-yl)phosphonic Acid]
10 | CNC(=O)N[S@](C)(=O)=NC(=O)[C@@](COC)(OC[C@H]1O[C@@H](n2ncc3c(NC4CCCC4)cc(Cl)nc32)[C@H](O)[C@@H]1O)P(=O)(O)O [Example 29, ((S)-2-(((2R,3S,4R,5R)-5-(6-chloro-4-(cyclopentylamino)-1H-pyrazolo[3,4-b]pyridin-1-yl)-3,4-dihydroxytetrahydrofuran-2-yl)methoxy)-3-methoxy-1-(((R)-methyl(3-methylureido)(oxo)-λ^6-sulfaneylidene)amino)-1-oxopropan-2-yl)phosphonic Acid]
11 | COC[C@@](OC[C@H]1O[C@@H](n2ncc3c(NC4CCCC4)cc(Cl)nc32)[C@H](O)[C@@H]1O)(C(=O)N=[S@@](C)(=O)NC(=O)C(C)C)P(=O)(O)O [Example 33, ((2S)-2-(((2R,3S,4R,5R)-5-(6-chloro-4-(cyclopentylamino)-1H-pyrazolo[3,4-b]pyridin-1-yl)-3,4-dihydroxytetrahydrofuran-2-yl)methoxy)-1-((isobutyramido(methyl)(oxo)-λ^6-sulfaneylidene)amino)-3-methoxy-1-oxopropan-2-yl)phosphonic Acid]
0.47 | COC[C@@](OC[C@H]1O[C@@H](n2ncc3c(NC4CCCC4)nc(Cl)nc32)[C@H](O)[C@@H]1O)(C(=O)N=[S@@](C)(=O)NC(=O)c1cnn(C)c1)P(=O)(O)O (single isomer, unassigned) [Example 23]
879 | COC[C@](OC[C@H]1O[C@@H](n2ncc3c(NC4CCCC4)nc(Cl)nc32)[C@H](O)[C@@H]1O)(C(=O)N=[S@@](C)(=O)NC(=O)OC)P(=O)(O)O [Example 8, ((R)-2-(((2R,3S,4R,5R)-5-(6-Chloro-4-(cyclopentylamino)-1H-pyrazolo[3,4-d]pyrimidin-1-yl)-3,4-dihydroxytetrahydrofuran-2-yl)methoxy)-3-methoxy-1-(((R)-((methoxycarbonyl)amino)(methyl)(oxo)-λ^6-sulfaneylidene)amino)-1-oxopropan-2-yl)phosphonic Acid]

From patent US20240140980A1, “HETEROCYCLIC INHIBITORS OF CD73 FOR TREATMENT OF DISEASE” (Teon Therapeutics, Inc., priority 2022, published 2024)
